≈ marks a conversion by molar mass, not a printed value. Read-outs that look alike come from different tables or passages of the source.
Tests used:
[1] = system: Penicillinsensitive S. aureus; assay: MIC, two-fold serial agar dilution in Mueller-Hinton agar, group (G+)-Ia; assay type: cell-based; settings: Staphylococcus aureus; (G+)-Ia, penicillin-sensitive S. aureus (5 strains); read-out: Geometric Mean of MIC
Description: (§1) In the primary evaluation of the compounds of this invention, the Minimum Inhibitory Concentrations (MIC's) of the compounds were determined by the two-fold serial agar dilution method in Mueller-Hinton agar against 32 strains of test organisms in six groups.

[2] = system: M. morganii, Ent. cloacae and Ser. marcescens; assay: MIC, two-fold serial agar dilution in Mueller-Hinton agar, group (G-)-II; assay type: cell-based; settings: (G-)-II, M. morganii (1), Ent. cloacae (2), Ser. marcescens (2 strains); read-out: Geometric Mean of MIC
Description: as §1
(G-)II: M. morganii (1 strain), Ent. cloacae (2 strains) and Ser.

[3] = system: Penicillinresistant S. aureus; assay: MIC, two-fold serial agar dilution in Mueller-Hinton agar, group (G+)-Ib; assay type: cell-based; settings: Staphylococcus aureus, read-out: Geometric Mean of MIC
Description: as §1
(G+)Ib: Penicillinresistant S. aureus (5 strains)

Pr. mirabilis A9554 = assay: MIC against specific test organism; assay type: cell-based; settings: Proteus mirabilis, read-out: Minimum Inhibitory Concentration
Description: as §1
(§2) The test method was as described for Table 1.

Ps. aeruginosa A20717 = assay: MIC against specific test organism; assay type: cell-based; settings: Pseudomonas aeruginosa, read-out: Minimum Inhibitory Concentration
Description: as §1, §2

S. aureus Smith = assay: MIC against specific test organism; assay type: cell-based; settings: Staphylococcus aureus, read-out: Minimum Inhibitory Concentration
Description: as §1, §2

K. pneumoniae D11 = assay: MIC against specific test organism; assay type: cell-based; settings: Klebsiella pneumoniae, read-out: Minimum Inhibitory Concentration
Description: as §1, §2

M. morganii A9553 = assay: MIC against specific test organism; assay type: cell-based; settings: Morganella morganii, read-out: Minimum Inhibitory Concentration
Description: as §1, §2

E. coli Juhl = assay: MIC against specific test organism; assay type: cell-based; settings: Escherichia coli, read-out: Minimum Inhibitory Concentration
Description: as §1, §2

K. pneumoniae A9867 = assay: MIC against specific test organism; assay type: cell-based; settings: Klebsiella pneumoniae, A9867, read-out: Minimum Inhibitory Concentration
Description: as §1, §2

S. aureus BX-1633-2 = assay: MIC against specific test organism; assay type: cell-based; settings: Staphylococcus aureus, BX16332; S. aureus BX-1633-2, penicillin-resistant strain; read-out: Minimum Inhibitory Concentration
Description: as §1, §2

E. coli A15164 = assay: MIC against specific test organism; assay type: cell-based; settings: Escherichia coli; E. coli A15164, cephalothin-resistant strain; read-out: Minimum Inhibitory Concentration
Description: as §1, §2

Ser. marcescens A20019 = assay: MIC against specific test organism; assay type: cell-based; settings: Serratia marcescens, read-out: Minimum Inhibitory Concentration
Description: as §1, §2

Ps. aeruginosa A9843 = assay: MIC against specific test organism; assay type: cell-based; settings: Pseudomonas aeruginosa, read-out: Minimum Inhibitory Concentration
Description: as §1, §2

Ps. aeruginosa A15150 = assay: MIC against specific test organism; assay type: cell-based; settings: Pseudomonas aeruginosa, read-out: Minimum Inhibitory Concentration
Description: as §1, §2

Ent. cloacae A9656 = assay: MIC against specific test organism; assay type: cell-based; settings: Enterobacter cloacae, read-out: Minimum Inhibitory Concentration
Description: as §1, §2

[4] = Mouse blood levels after single intramuscular injection; assay type: in vivo, mice; settings: for concentration at 10 min / concentration at 20 min / concentration at 0.5 h / concentration at 40 min / concentration at 50 min / concentration at 1 h / concentration at 1.5 h: read-out: Mouse Blood Level; for concentration at 0.5 h: 30 minutes; for concentration at 1 h: 60 minutes; for concentration at 1.5 h: 90 minutes
Description: The absorption of some of the preferred compounds were determined in mice following a single intramuscular injection of the test compound (dissolved in 0.1M phosphate buffer; pH 7) at a dosage of 10, 20 or 40 mg/kg. Blood samples were collected from the orbital sinuses into heparinized capillary tubes and assayed in Nutrient Agar (pH 6.6) using E. coli Ess-22-31 as the test organism. The blood levels at various time intervals, the half-life values (t1/2) and the areas under the curve (AUC) are shown in Table 3.

[5] = system: Cephalothinresistant E. coli and Kl. pneumoniae; assay: MIC, two-fold serial agar dilution in Mueller-Hinton agar, group (G-)-Ib; assay type: cell-based; settings: read-out: Geometric Mean of MIC
Description: as §1
(G-)Ib: Cephalothinresistant E. coli (3 strains) and Kl. pneumoniae (3

[6] = system: Cephalothinsensitive E. coli, Kl. pneumoniae and Pr. mirabilis; assay: MIC, two-fold serial agar dilution in Mueller-Hinton agar, group (G-)-Ia; assay type: cell-based; settings: (G-)-Ia, cephalothin-sensitive E. coli (2), Kl. pneumoniae (1), Pr. mirabilis (2 strains); read-out: Geometric Mean of MIC
Description: as §1
(G-)Ia: Cephalothinsensitive E. coli (2 strains), Kl. pneumoniae (1
strain) and Pr. mirabilis (2 strains)

Ps. aeruginosa = assay: MIC, two-fold serial agar dilution in Mueller-Hinton agar, group (G-)-III; assay type: cell-based; settings: Pseudomonas aeruginosa, Ps. aeruginosa (6 strains), read-out: Geometric Mean of MIC
Description: as §1

CSc1scc[n+]1CC1=C(C(=O)[O-])N2C(=O)C(NC(=O)/C(=N\OC(C)(C)C(=O)O)c3csc(N)n3)[C@H]2SC1 (stereo partly shown) [Example 1, 7-[(Z)-2-(2-Aminothiazol-4-yl)-2-(2-carboxyprop-2-oxyimino)acetamido]-3-(2-methylthiothiazolio)methyl-3-cephem-4-carboxylate]
MIC [1]: 1.2 mg/L (≈ 2 µM)
MIC [2]: 0.24 mg/L (≈ 0.401 µM)
MIC [3]: 3.6 mg/L (≈ 6.01 µM)
MIC (Pr. mirabilis A9554): 0.05 mg/L (≈ 0.0835 µM)
MIC (Ps. aeruginosa A20717): 3.1 mg/L (≈ 5.18 µM)
MIC (S. aureus Smith): 1.6 mg/L (≈ 2.67 µM)
MIC (K. pneumoniae D11): 0.1 mg/L (≈ 0.167 µM)
MIC (M. morganii A9553): 0.1 mg/L (≈ 0.167 µM)
MIC (E. coli Juhl): 0.1 mg/L (≈ 0.167 µM)
MIC (K. pneumoniae A9867): 1.6 mg/L (≈ 2.67 µM)
MIC (S. aureus BX-1633-2): 3.1 mg/L (≈ 5.18 µM)
MIC (E. coli A15164): 0.8 mg/L (≈ 1.34 µM)
MIC (Ser. marcescens A20019): 0.1 mg/L (≈ 0.167 µM)
MIC (Ps. aeruginosa A9843): 1.6 mg/L (≈ 2.67 µM)
MIC (Ps. aeruginosa A15150): 0.8 mg/L (≈ 1.34 µM)
MIC (Ent. cloacae A9656): 0.1 mg/L (≈ 0.167 µM)
AUC ([4]; 10 mg/kg im): 5 µg·h/mL
half-life ([4]; 10 mg/kg im): 15 min
concentration at 10 min ([4]; 10 mg/kg im): 12 µg/mL
concentration at 20 min ([4]; 10 mg/kg im): 7.4 µg/mL
concentration at 0.5 h ([4]; 10 mg/kg im): 4.7 µg/mL
concentration at 40 min ([4]; 10 mg/kg im): < 3 µg/mL
AUC ([4]; 20 mg/kg im): 16 µg·h/mL
half-life ([4]; 20 mg/kg im): 14 min
concentration at 10 min ([4]; 20 mg/kg im): 33 µg/mL
concentration at 20 min ([4]; 20 mg/kg im): 24 µg/mL
concentration at 0.5 h ([4]; 20 mg/kg im): 18 µg/mL
concentration at 40 min ([4]; 20 mg/kg im): 9.4 µg/mL
concentration at 50 min ([4]; 20 mg/kg im): 6.7 µg/mL
concentration at 1 h ([4]; 20 mg/kg im): 3.5 µg/mL
concentration at 1.5 h ([4]; 20 mg/kg im): < 3 µg/mL
AUC ([4]; 40 mg/kg im): 25 µg·h/mL
half-life ([4]; 40 mg/kg im): 13 min
concentration at 10 min ([4]; 40 mg/kg im): 51 µg/mL
concentration at 20 min ([4]; 40 mg/kg im): 40 µg/mL
concentration at 0.5 h ([4]; 40 mg/kg im): 29 µg/mL
concentration at 40 min ([4]; 40 mg/kg im): 15 µg/mL
concentration at 50 min ([4]; 40 mg/kg im): 9 µg/mL
concentration at 1 h ([4]; 40 mg/kg im): 4.6 µg/mL
concentration at 1.5 h ([4]; 40 mg/kg im): < 3 µg/mL
MIC [5]: 0.69 mg/L (≈ 1.15 µM)
MIC [6]: 0.038 mg/L (≈ 0.0635 µM)
MIC (Ps. aeruginosa): 1.4 mg/L (≈ 2.34 µM)
